US6699656B2, “Treatment and prevention of HIV infection by administration of derivatives of human chorionic gonadotropin” (University of Maryland Biotechnology Institute, priority 1996, dated 2004)
Bridges are numbered along the chain shown (N, C = ends). Where no end group is shown, it is not given here.

What was measured:
HIV-1 [1] = test system: HIV-1
HIV-1 [2] = details: p24 antigen days 3 to 10; peptides 0.05 to 50 nmoles/ml, hCG 0.01 to 1,000 IU, native β-hCG 100 to 1,000 μg
Experimental: Sequences of the peptides are as follows:
HIV-1 infected cells were treated with the above preparations and the virus was measured.

KS Y-1 or KS-SLK cells = assay: KS clonogenic assay; assay type: cell-based, human; details: 2 KS cell lines; peptides 50 nmoles/ml, CR127 2 nmoles/ml; 10 days
Experimental: Briefly, the KS Y-1 cells were obtained from mononuclear cells isolated from pleural effusion of an AIDS patient with KS involving the lungs. After the depletion of T lymphocytes, monocytes/macrophages and fibroblasts by the cytotoxicity method, using monoclonal antibodies against CD2, CD3, CD4, CD8, CD10 and CD14 membrane antigens and baby rabbit complement, the cells were cultured in the absence of exogenous growth factors to select for transformed cells.

KS Y-1 tumors = KS Y-1 tumors induced in immunodeficient mice; assay type: in vivo; details: treatment from one week after tumor cell injection; peptides 10 μg daily 5 days, hCG APL 100 IU s.c. daily 7 days
Experimental: The effects of the peptides on KS tumor cells were also evaluated in vivo in the mouse model. To induce KS tumors in the mice, 1×10^6/ml KS Y-1 cells in 50 μl PBS or saline were injected subcutaneously into immunodeficient mice (beige-XID-BNX mice). […] Methods for detection of apoptosis (from tissue biopsies) were used, as described in Lunardi-Iskandar, Y. et al.(1995, Nature 375:64-68). Briefly, the samples were stained in situ for the presence of cells with DNA fragmentation. Tissue slides from formalin-fixed tumors were treated with terminal deoxynucleotide transferase for extension of DNA ends (hydroxyl 3′) and incorporation of digoxigenin-11-dUTP according to the manufacturer's instructions (Oncor, Gaithersburg, Md.). Anti-digoxigenin antibody conjugated with the enzyme peroxidase allowed detection of apoptotic cells that stain brown whereas viable cells stain blue.

[3] = test system: hematopoietic progenitor cells; assay: Hematopoietic progenitor colony assays (CFU-MIX, BFU-e, CFU-GM); assay type: cell-based; details: bone marrow and cord blood; hCG 200 IU/ml, peptides and subunits 100 μg/ml; 10 days
Source text: Hematopoietic progenitor cells (2×10^5 cell/ml) were isolated from normal bone marrow and cord blood and seeded in methylcellulose. […] Aggregates containing more than 50 cells after 10 days of culture were counted as colonies.

HIV-1 transgenic mice = assay type: in vivo
Kaposi's Sarcoma = details: literature; cited from earlier work

Row | Compound | inhibition of HIV-1 infection/replication in acutely infected cells (HIV-1 [2]) | anti-KS effect in clonogenic assays (number of colonies) (KS Y-1 or KS-SLK cells) | effect on KS Y-1 tumors in mice (cell death, thin sections) (KS Y-1 tumors) | growth of hematopoietic progenitors (colonies) [3] | further results
1 | CC(C)c1nc(CN(C)C(=O)N[C@H](C(=O)N[C@@H](Cc2ccccc2)C[C@H](O)[C@H](Cc2ccccc2)NC(=O)OCc2cncs2)C(C)C)cs1 [Ritonavir] |  |  |  |  | CD4+ T cells, patient PH-SPBE (HIV-1 [1]; Ritonavir added at 22 weeks to ongoing hCG treatment): over 300 mm^3
2 | CC(C)(C)NC(=O)[C@@H]1CN(Cc2cccnc2)CCN1C[C@@H](O)C[C@@H](Cc1ccccc1)C(=O)N[C@H]1c2ccccc2C[C@H]1O [indinavir (Crixivan)] |  |  |  |  | viral load, patient PH-JPV (HIV-1 [1]; indinavir added after hCG induced pulmonary response): undetectable viral load
3 | Cys Leu Gln Gly Val Leu Pro Ala Leu Pro Gln Val Val Cys (CLQGVLPALPQVVC; disulfide 1-14 (inferred)) [Satellin A2 peptide] | most active | strongest anti-tumor effects | extensive cell death | directly promoted | 
4 | LQGVLPALPQVVC [β-hCG peptide 45-57] | most active | strongest anti-tumor effects | extensive cell death | directly promoted | 
5 | Leu Gln Dab(Pro) Val Leu Pro Dab(Pro) Leu Pro Gln Val Val Cys [branched β-hCG 45-57] |  |  |  |  | hyperkeratosis of the skin / histology (HIV-1 transgenic mice; HIV-1 transgenic mice): normal histology; growth retardation and cachexia (HIV-1 transgenic mice; HIV-1 transgenic mice, branched peptide 10 μg to mothers s.c. daily for 10 days): reversal; survival (HIV-1 transgenic mice; all untreated mice died within 10 days, 10 μg to mothers s.c. daily for 10 days): survived; gp120 and nef protein by antibody staining (HIV-1 transgenic mice; pups, 10 μg to mothers s.c. daily for 10 days): down regulation
6 | TCDDPRFQDSS [β-hCG peptide 109-119] | active | strongest anti-tumor effects |  | directly promoted | efficacy in the treatment of Kaposi's Sarcoma (Kaposi's Sarcoma): efficacious
7 | α-hCG peptide 88-92: α-hCG peptide of amino acids 88-92 (YYHKS; UniProt P01215 112-116, looked up, fragment) | little or no effect | little or no inhibition | inactive | little or no effects | 
8 | β-hCG peptide 6-16: β-hCG peptide of amino acids 6-16 (RPRCRPINATL; UniProt P0DN86 26-36, looked up, fragment) | little or no effect | little or no inhibition | inactive | little or no effects | 
9 | β-hCG peptide 6-40: β-hCG peptide 6-40, forms the β-core (RPRCRPINATLAVEKEGCPVCITVNTTICAGYCPT; UniProt P0DN86 26-60, looked up, fragment) |  |  | slight activity |  | 
10 | β-hCG peptide 7-40: β-hCG peptide of amino acids 7-40 (PRCRPINATLAVEKEGCPVCITVNTTICAGYCPT; UniProt P0DN86 27-60, looked up, fragment) |  | little or no inhibition |  | little or no effects | 
11 | β-hCG peptide 34-49: β-hCG peptide of amino acids 34-49 (CAGYCPTMTRVLQGVL; UniProt P0DN86 54-69, looked up, fragment) |  | little or no inhibition | inactive | little or no effects | 
12 | β-hCG peptide 38-57: β-hCG peptide of amino acids 38-57, overlaps satellin A1 (CPTMTRVLQGVLPALPQVVC; UniProt P0DN86 58-77, looked up, fragment) |  | little or no inhibition | slight activity | little or no effects | 
13 | β-hCG peptide 55-90: β-hCG peptide 55-90, forms the β-core (VVCNYRDVRFESIRLPGCPRGVNPVVSYAVALSCQC; UniProt P0DN86 75-110, looked up, fragment) |  |  | slight activity |  | 
14 | β-hCG peptide 57-93: β-hCG peptide of amino acids 57-93 (CNYRDVRFESIRLPGCPRGVNPVVSYAVALSCQCALC; UniProt P0DN86 77-113, looked up, fragment) |  | little or no inhibition | inactive | little or no effects | 
15 | β-hCG peptide 74-95: β-hCG peptide of amino acids 74-95 (RGVNPVVSYAVALSCQCALCRR; UniProt P0DN86 94-115, looked up, fragment) | little or no effect | little or no inhibition | inactive | little or no effects | 
16 | β-hCG peptide 93-100: β-hCG peptide of amino acids 93-100 (CRRSTTDC; UniProt P0DN86 113-120, looked up, fragment) |  |  | inactive |  | 
17 | β-hCG peptide 100-110: β-hCG peptide of amino acids 100-110 (CGGPKDHPLTC; UniProt P0DN86 120-130, looked up, fragment) |  | little or no inhibition | inactive | little or no effects | 
18 | β-hCG peptide 109-145: β-hCG carboxy-terminal peptide of amino acids 109-145 (TCDDPRFQDSSSSKAPPPSLPSPSRLPGPSDTPILPQ) |  |  |  |  | efficacy in the treatment of Kaposi's Sarcoma (Kaposi's Sarcoma): efficacious
19 | β-hCG peptide 123-145: β-hCG peptide of amino acids 123-145 |  |  | inactive | little or no effects | 
20 | β-hCG peptide 134-144: β-hCG peptide of amino acids 134-144 |  |  | inactive | little or no effects | 
